US12447119B2, “Oral care composition” (SUNSTAR AMERICAS, INC., priority 2019, dated 2025)

Test: Solubility of surfactant in an oral care composition (statement in Experiment 4)
Type: physicochemical
Details: compared with a monoglyceride and diglyceride mixture
Excerpt: The results of Experiment 4 are shown in FIG. 5 (represented by Table 6 below), which measures the toothpaste concentration that causes 50% cell hemolysis. […] Glyceryl monostearate is harder to dissolve in an oral care composition than monoglyceride and digylceride mixtures.

For `CCCCCCCCCCCCCCCCCC(=O)OCC(O)CO` (stereo not shown) [Glyceryl monostearate, glyceryl monostearate], the “solubility of the surfactant in an oral care composition” value was “less soluble than a monoglyceride and diglyceride mixture”.
